Key:
[1] = tested on: Mycobacterium tuberculosis Erdman (autoluminescent); experiment: Einf, fitted maximum growth inhibition of three-drug combination (fraction); higher = stronger maximal inhibition
Procedure: (§1)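 DiaMOND equipotent three-drug combination dose responses (10 doses, 1.5- or 2-fold spacing, centred on IC90) against autoluminescent M. tuberculosis Erdman in 8 in vitro models. Read-out is OD600, or luminescence for the intracellular and dormancy models, normalised to untreated wells. Hill-fit Einf, AUC25 and GRinf are potency metrics; FIC50 and FIC90 are total Loewe fractional inhibitory concentrations as log2 (negative = synergy).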

[2] = tested on: Mycobacterium tuberculosis Erdman (autoluminescent); experiment: AUC25, normalised area under dose response up to IC25 (three-drug combination) (fraction (0-1)); higher = more potent at low dose
Procedure: as §1

[3] = tested on: Mycobacterium tuberculosis Erdman (autoluminescent); experiment: total FIC90 (Loewe) at 90% inhibition, three-drug combination (log2); higher = more antagonistic
Procedure: as §1

[4] = tested on: Mycobacterium tuberculosis Erdman (autoluminescent); experiment: total FIC50 (Loewe) at 50% inhibition, three-drug combination (log2); higher = more antagonistic
Procedure: as §1

[5] = tested on: Mycobacterium tuberculosis Erdman (autoluminescent); experiment: GRinf, maximum normalised growth rate inhibition (three-drug combination) (unitless (-1 to 1)); higher = less effect (negative = killing)
Procedure: as §1

CC[C@@H](CO)NCCN[C@@H](CC)CO [ethambutol] + NNC(=O)c1ccncc1 [isoniazid] + CO[C@H]1/C=C/O[C@@]2(C)Oc3c(C)c(O)c4c(O)c(c(/C=N/N5CCN(C)CC5)c(O)c4c3C2=O)NC(=O)/C(C)=C\C=C\[C@H](C)[C@H](O)[C@@H](C)[C@@H](O)[C@@H](C)[C@H](OC(C)=O)[C@@H]1C [rifampicin]
Conditions	AUC25, [2]	Einf, [1]	GRinf, [5]	total FIC50, [4]	total FIC90, [3]
in vitro model: acidic pH 5.7, time point: constant (~7 days, model-specific)	0.104	0.899	-0.0987	-0.427	–
in vitro model: acidic pH 5.7, time point: terminal (~4-5 doublings, model-specific)	0.0385	0.97	-0.0837	0.126	-0.549
in vitro model: intracellular J774, time point: constant = terminal	–	0.967	-0.321	–	-2.19

Conditions	AUC25, [2]	Einf, [1]	GRinf, [5]	total FIC50, [4]	total FIC90, [3]
in vitro model: butyrate, time point: constant (~7 days, model-specific)	0.0804	0.936	-0.0122	0.2	–
in vitro model: butyrate, time point: terminal (~4-5 doublings, model-specific)	0.0612	0.972	-0.0091	0.238	-0.403
in vitro model: cholesterol 0.05 mM, time point: constant (~7 days, model-specific)	0.0636	0.617	0.000894	-0.456	–
in vitro model: cholesterol 0.05 mM, time point: terminal (~4-5 doublings, model-specific)	0.0895	0.867	0.194	0.41	–
in vitro model: cholesterol-high 0.2 mM, time point: constant (~7 days, model-specific)	0.0326	0.915	-0.23	0.757	–
in vitro model: cholesterol-high 0.2 mM, time point: terminal (~4-5 doublings, model-specific)	0.0525	0.997	-0.778	0.99	0.871
in vitro model: dormancy (butyrate + nitrate, low O2), time point: constant (~7 days, model-specific)	0.0838	0.872	0.364	-0.262	–
in vitro model: dormancy (butyrate + nitrate, low O2), time point: terminal (~4-5 doublings, model-specific)	0.079	0.992	-0.165	0.173	-0.24
in vitro model: standard 7H9 glycerol, time point: constant = terminal	0.0526	0.9	0.116	0.199	–
in vitro model: valerate, time point: constant (~7 days, model-specific)	0.0369	0.853	0.000652	0.253	–
in vitro model: valerate, time point: terminal (~4-5 doublings, model-specific)	0.0264	0.932	0.0672	0.302	-0.619

CC[C@@H](CO)NCCN[C@@H](CC)CO [ethambutol] + NNC(=O)c1ccncc1 [isoniazid] + COc1c(N2C[C@@H]3CCCN[C@@H]3C2)c(F)cc2c(=O)c(C(=O)O)cn(C3CC3)c12 [moxifloxacin]
Conditions	AUC25, [2]	Einf, [1]	GRinf, [5]	total FIC50, [4]	total FIC90, [3]
in vitro model: acidic pH 5.7, time point: constant (~7 days, model-specific)	0.0955	0.722	-0.273	-0.309	–
in vitro model: acidic pH 5.7, time point: terminal (~4-5 doublings, model-specific)	0.0597	0.933	-0.253	0.821	0.326
in vitro model: intracellular J774, time point: constant = terminal	–	0.976	-0.437	–	-0.746

Conditions	AUC25, [2]	Einf, [1]	GRinf, [5]	total FIC50, [4]	total FIC90, [3]
in vitro model: butyrate, time point: constant (~7 days, model-specific)	0.0852	0.938	-0.0732	0.655	–
in vitro model: butyrate, time point: terminal (~4-5 doublings, model-specific)	0.0658	0.974	-0.0933	0.598	0.445
in vitro model: cholesterol 0.05 mM, time point: constant (~7 days, model-specific)	0.119	0.798	-0.268	0.425	–
in vitro model: cholesterol 0.05 mM, time point: terminal (~4-5 doublings, model-specific)	0.0714	0.92	0.0114	1.23	0.826
in vitro model: cholesterol-high 0.2 mM, time point: constant (~7 days, model-specific)	0.0564	0.94	-0.315	0.863	–
in vitro model: cholesterol-high 0.2 mM, time point: terminal (~4-5 doublings, model-specific)	0.0472	1	-0.686	1.21	0.977
in vitro model: dormancy (butyrate + nitrate, low O2), time point: constant (~7 days, model-specific)	0.119	0.851	0.356	0.357	–
in vitro model: dormancy (butyrate + nitrate, low O2), time point: terminal (~4-5 doublings, model-specific)	0.125	0.986	-0.134	-0.452	0.658
in vitro model: standard 7H9 glycerol, time point: constant = terminal	0.0677	0.975	-0.186	0.205	0.328
in vitro model: valerate, time point: constant (~7 days, model-specific)	0.0908	0.876	-0.0258	0.301	–
in vitro model: valerate, time point: terminal (~4-5 doublings, model-specific)	0.0784	0.953	0.0174	0.421	0.19

CC[C@@H](CO)NCCN[C@@H](CC)CO [ethambutol] + NNC(=O)c1ccncc1 [isoniazid] + NC(=O)c1cnccn1 [pyrazinamide]
Conditions	AUC25, [2]	Einf, [1]	GRinf, [5]	total FIC50, [4]	total FIC90, [3]
in vitro model: acidic pH 5.7, time point: constant (~7 days, model-specific)	0.0856	0.755	-0.322	0.219	–
in vitro model: acidic pH 5.7, time point: terminal (~4-5 doublings, model-specific)	0.076	0.953	-0.269	0.788	-0.0381
in vitro model: intracellular J774, time point: constant = terminal	–	0.988	-0.458	–	0.0195

Conditions	AUC25, [2]	Einf, [1]	GRinf, [5]	total FIC50, [4]	total FIC90, [3]
in vitro model: butyrate, time point: constant (~7 days, model-specific)	0.0862	0.936	-0.0472	0.362	–
in vitro model: butyrate, time point: terminal (~4-5 doublings, model-specific)	0.0571	0.956	0.000899	0.43	0.0924
in vitro model: cholesterol 0.05 mM, time point: constant (~7 days, model-specific)	0.115	0.804	-0.282	–	–
in vitro model: cholesterol 0.05 mM, time point: terminal (~4-5 doublings, model-specific)	0.119	0.953	-0.377	0.635	–
in vitro model: cholesterol-high 0.2 mM, time point: constant (~7 days, model-specific)	0.0628	0.921	-0.27	0.837	–
in vitro model: cholesterol-high 0.2 mM, time point: terminal (~4-5 doublings, model-specific)	0.0569	1	-0.8	0.879	0.821
in vitro model: dormancy (butyrate + nitrate, low O2), time point: constant (~7 days, model-specific)	0.0979	0.822	0.394	-0.294	–
in vitro model: dormancy (butyrate + nitrate, low O2), time point: terminal (~4-5 doublings, model-specific)	0.104	0.972	-0.0582	0.22	1.09
in vitro model: standard 7H9 glycerol, time point: constant = terminal	0.063	0.862	0.233	0.587	–
in vitro model: valerate, time point: constant (~7 days, model-specific)	0.069	0.819	0.124	0.411	–
in vitro model: valerate, time point: terminal (~4-5 doublings, model-specific)	0.0469	0.898	0.113	0.582	0.569
